# Measured values reported in paper PMC10223062, “Discovery of Novel Thiophene/Hydrazones: In Vitro and In Silico Studies against Pancreatic Cancer” (Pharmaceutics, 2023).
# Counter-ions that a name gives are not always drawn.
# Experiments:
# MIA PaCa-2 cell line = assay: 2D anticancer activity, MTT assay; type: cell-based; conditions: Homo sapiens, 72 h exposure, read-out: IC50 in 2D cultured MIA PaCa-2 cell line
# Method: (§1) For the preliminary assessment of anticancer activity in a 2D cell culture system, an MIA PaCa-2 human pancreas epithelial carcinoma (CRL-1420™) cell line (ATCC, Manassas, VA, USA) was cultured in Dulbecco’s Modified Eagle Medium with 10% fetal bovine serum (FBS, v/v) (Gibco, Billings, MT, USA) and supplemented with 1% antibiotics (10,000 μg/mL streptomycin and 10,000 U/mL penicillin) (Gibco, Billings, MT, USA) at 37 °C in a humidified 5% CO2 atmosphere. For the in vitro modeling of the tumor microenvironment, compounds were also tested in a 3D spheroid test system. For this purpose, the MIA PaCa-2 human pancreas epithelial carcinoma (CRL-1420™) cell line and human dermal fibroblast cell line HDF (PCS-201-012) cells were used.
# For the assessment of anticancer activity of the compounds, the MIA PaCa-2 cells were plated in 48-well microplates at 1.5 × 10^5 cells/mL and incubated for 24 h at 37 °C in 5% CO2 in accordance with a previously reported method. Following the day, the cells were treated with compounds in various concentrations between 0.1–100 µM dissolved in dimethyl sulfoxide (DMSO) (Sigma Aldrich, St. Louis, MO, USA). Following the 72 h of incubation, culture mediums were discarded and 0.5 mg/mL 3-(4,5-Dimethylthiazol-2-yl)-2,5-Diphenyltetrazolium Bromide (MTT) (Sigma Aldrich, St. Louis, MO, USA) was added to each well for an additional 2 h at 37 °C. After 2 h incubation, the medium was discarded and 100 µL of isopropanol (Sigma Aldrich, St. Louis, MO, USA) was added to the wells to dissolve formazan crystals. The optical density was measured at 570 nm wavelength using a microplate reader (Thermo Fisher Scientific Multiskan, Finland). Doxorubicin hydrochloride (DOX) (European Pharmacopoeia standard, Sigma) was used as internal positive control, and 0.5% DMSO (v/v) was used as negative control. The percentage of cell viability was determined by using the following equation:(1) Viability %=(Absorbancecompound)/(Absorbancenegative control)×100%
# 5-LOX = target: T1, 5-LOX (Homo sapiens, UniProt P09917); assay: Fluorometric 5-LOX inhibitor screening kit; type: biochemical; conditions: for 5-LOX Percent of İnhibition: at 10 µM
# T1 construct: purchased MyBioSource
# T1 sequence (P09917 1-674): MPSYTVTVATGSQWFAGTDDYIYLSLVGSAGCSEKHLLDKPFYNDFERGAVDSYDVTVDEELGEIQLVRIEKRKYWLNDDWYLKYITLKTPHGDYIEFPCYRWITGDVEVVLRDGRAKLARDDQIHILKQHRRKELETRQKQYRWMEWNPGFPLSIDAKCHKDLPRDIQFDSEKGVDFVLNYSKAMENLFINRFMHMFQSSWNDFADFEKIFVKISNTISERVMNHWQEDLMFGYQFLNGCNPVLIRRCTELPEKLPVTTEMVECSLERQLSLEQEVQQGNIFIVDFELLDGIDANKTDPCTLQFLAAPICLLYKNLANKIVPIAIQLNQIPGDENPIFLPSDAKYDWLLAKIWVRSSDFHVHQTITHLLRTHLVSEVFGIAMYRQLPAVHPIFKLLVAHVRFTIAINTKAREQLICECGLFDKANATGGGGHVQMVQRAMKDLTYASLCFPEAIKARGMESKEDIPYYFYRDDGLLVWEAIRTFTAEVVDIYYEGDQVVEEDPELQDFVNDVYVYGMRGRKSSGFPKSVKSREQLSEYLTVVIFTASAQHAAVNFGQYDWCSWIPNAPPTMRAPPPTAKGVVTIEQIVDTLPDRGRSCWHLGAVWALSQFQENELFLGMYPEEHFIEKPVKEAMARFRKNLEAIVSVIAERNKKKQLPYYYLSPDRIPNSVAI
# Method: COX-1 and COX-2 inhibitory activities were tested using fluorometric COX-1 and COX-2 inhibitor screening kits (Abcam, United Kingdom), and the 5-LOX inhibitory activity was tested using a fluorometric 5-LOX inhibitor screening kit (MyBioSource, USA). These assays are based on the fluorometric detection of Prostaglandin G2 (a product generated by the COX enzyme) or on the fluorometric detection of the intermediate generated by the 5-LOX enzyme. The experiments were conducted in accordance with the manufacturers’ instructions.
# For the determination of 5-LOX inhibitory activity, tested compounds were dissolved in DMSO (5 mM stock solution) and then diluted with the same solvent to obtain the test solutions. Test solutions were added to wells in an amount of 2 µL in the final 100 µL reaction volume. […] EC, SC, IC, and all test solutions were analyzed in triplicate.
# COX-2 = target: T2, COX-2 (Homo sapiens, UniProt P35354); assay: Fluorometric COX-2 inhibitor screening kit; conditions: at 10 µM
# T2 sequence (P35354 18-604): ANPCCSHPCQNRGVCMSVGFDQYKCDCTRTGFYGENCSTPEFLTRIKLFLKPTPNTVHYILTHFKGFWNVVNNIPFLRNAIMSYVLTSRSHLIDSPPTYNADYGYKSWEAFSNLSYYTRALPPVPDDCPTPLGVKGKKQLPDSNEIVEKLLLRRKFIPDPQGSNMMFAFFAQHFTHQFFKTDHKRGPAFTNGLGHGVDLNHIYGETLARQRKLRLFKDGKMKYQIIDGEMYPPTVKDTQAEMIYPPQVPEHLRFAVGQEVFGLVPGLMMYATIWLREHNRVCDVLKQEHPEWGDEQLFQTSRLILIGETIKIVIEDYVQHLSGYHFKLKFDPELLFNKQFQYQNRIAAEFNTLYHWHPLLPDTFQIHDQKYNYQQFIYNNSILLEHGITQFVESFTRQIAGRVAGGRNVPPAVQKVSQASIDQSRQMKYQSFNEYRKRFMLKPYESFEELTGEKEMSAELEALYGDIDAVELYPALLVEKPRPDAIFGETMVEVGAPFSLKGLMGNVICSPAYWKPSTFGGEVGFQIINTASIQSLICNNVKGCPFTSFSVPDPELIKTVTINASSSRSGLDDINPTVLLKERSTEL
# Method: For the determination of COX-1 and COX-2 inhibitory activity, the tested compounds were dissolved in dimethyl sulfoxide (DMSO, 5 mM stock solution) and then diluted with the same solvent to obtain the test solutions. The test solutions were further diluted 5× with COX Assay Buffer (2 µL of test solution: 8 µL COX Assay Buffer). […] Solvent Control (SC) was prepared by adding 2 µL DMSO and 8 µL COX Assay Buffer, while Sample (S) and Enzyme Control (EC) were prepared by adding 10 µL of diluted test solution and COX Assay Buffer, respectively, into assigned wells.
# [1] = system: MIA PaCa-2 tumor spheroids; assay: 3D spheroid formation/growth assay; type: cell-based, human; parameters: Spheroid Diameter Day 0 / Spheroid Diameter Day 9: unit not given here; conditions: for Spheroid Diameter Day 0: Day 0 (baseline)
# Method: as §1
# For 3D spheroid formation, the MIA PaCa-2 cells (PC cell line) and HDF cells were used according to the 3D Bioprinting method. To better simulate the tumor microenvironment, PC cells were mixed (1:1) with human fibroblasts. Briefly, the MIA PaCa-2 cells and human fibroblasts at 70–80% confluency were added to a 6-well plate and incubated with biocompatible NanoShuttle TM-PL (Bioprinting Kit, Greiner Bio-One, Germany) overnight at 37 °C in a humidified 5% CO2 atmosphere. After the nanoparticles were taken up by the cells, they were resuspended and seeded into an ultra-low attachment 96-well plate at a volume of 100 μL (2000 PC cells and 2000 human fibroblasts per well) volume. The plate was placed on a magnetic drive and incubated at 37 °C in a humidified 5% CO2 atmosphere until spheroids were formed. After two days of incubation, the spheroids were photographed using light microscopy (Carl Zeiss Primo Vert, Germany). Fresh medium containing 0.1, 1, 10, and 100 µM of tested compound was added to the wells. Photos were taken every 72 h, and the medium was replaced every 72 h. The effect of the tested compounds in 3D PC cell cultures was examined by measuring the size change of spheroids using ImageJ software (ImageJ 2.0 software, USA).
# HaCaT cell line = assay: Cell viability (cytotoxicity) in healthy cells, MTT assay; type: cell-based, human; conditions: Homo sapiens, HaCaT; MTT, 72 h, healthy keratinocytes; read-out: IC50 in 2D cultured HaCaT cell line
# Method: HaCaT human healthy keratinocyte cells (CRL-2404™) (ATCC, Manassas, VA, USA) were cultured in DMEM (10% FBS, v/v) (Gibco, Billings, MT, USA), respectively and supplemented with 1% antibiotics (10.000 μg/mL streptomycin and 10.000 units/mL penicillin) (Gibco, Billings, MT, USA) at 37 °C in a humidified atmosphere of 5% CO2. For the preliminary assessment of the cytotoxicity of selected potent compounds in healthy cells, HaCaT cells were seeded 2 × 10^5 cells/mL in 96-well plate and incubated for 24 h. The following day the 7a, 7d, and 7f compounds were applied similarly as in the MIA PaCa-2 cytotoxicity protocol between concentrations 0.62–100 µM for 72 h and then MTT was applied.
smiles,measurement,setting,value
"O=C(N/N=C/c1cccc(O)c1)c1cc(-c2ccccc2)c(-c2ccccc2)s1 [7b, N’-[(E)-(3-hydroxyphenyl)methylidene]-4,5-diphenylthiophene-2-carbohydrazide]",IC50,MIA PaCa-2 cell line,9.09 ± 1.11 µM
same,IC50,5-LOX,93.2 ± 9.89 µM
same,5-LOX Percent of İnhibition,5-LOX,25.77 ± 2.54%
same,COX-2 Percent of İnhibition,COX-2,24.13 ± 1.55%
same,melting point,,225 °C
same,Spheroid Diameter Day 0,[1]; 0.1 µM group,1193.0 ± 13.1
same,Spheroid Diameter Day 9,[1]; 0.1 µM,5922.5 ± 39.8
same,Spheroid Diameter Day 0,[1]; 1 µM group,1185.5 ± 82.7
same,Spheroid Diameter Day 9,[1]; 1 µM,6461.5 ± 59.6
same,Spheroid Diameter Day 0,[1]; 10 µM group,969.3 ± 28.9
same,Spheroid Diameter Day 9,[1]; 10 µM,4192.0 ± 44.8
same,Spheroid Diameter Day 0,[1]; 100 µM group,644.7 ± 26.9
same,Spheroid Diameter Day 9,[1]; 100 µM,1050.5 ± 18.9
"COc1ccc(/C=N/NC(=O)c2cc(-c3ccccc3)c(-c3ccccc3)s2)cc1OC [7g, N’-[(E)-(3,4-dimethoxyphenyl)methylidene]-4,5-diphenylthiophene-2-carbohydrazide]",IC50,MIA PaCa-2 cell line,24.2 ± 3.76 µM
same,5-LOX Percent of İnhibition,5-LOX,20.38 ± 1.98%
same,COX-2 Percent of İnhibition,COX-2,11.41 ± 3.40%
same,melting point,,253 °C
same,Spheroid Diameter Day 0,[1]; 0.1 µM group,1222.5 ± 28.73
same,Spheroid Diameter Day 9,[1]; 0.1 µM,5969.0 ± 59.6
same,Spheroid Diameter Day 0,[1]; 1 µM group,985.5 ± 65.7
same,Spheroid Diameter Day 9,[1]; 1 µM,3318.0 ± 35.4
same,Spheroid state at the end of the 9 days,[1]; 10–100 µM,disintegrated
"COc1ccc(/C=N/NC(=O)c2cc(-c3ccccc3)c(-c3ccccc3)s2)c(OC)c1OC [7h, N’-[(E)-(2,3,4-trimethoxyphenyl)methylidene]-4,5-diphenylthiophene-2-carbohydrazide]",IC50,MIA PaCa-2 cell line,> 100 µM
same,5-LOX Percent of İnhibition,5-LOX,19.87 ± 1.62%
same,COX-2 Percent of İnhibition,COX-2,8.35 ± 0.93%
same,melting point,,245 °C
same,Spheroid Diameter Day 0,[1]; 0.1 µM group,1125.5 ± 28.9
same,Spheroid Diameter Day 9,[1]; 0.1 µM,5215 ± 18.3
same,Spheroid Diameter Day 0,[1]; 1 µM group,1220.5 ± 31.5
same,Spheroid Diameter Day 9,[1]; 1 µM,6682.5 ± 7.1
same,Spheroid Diameter Day 0,[1]; 10 µM group,1192.0 ± 24.7
same,Spheroid Diameter Day 9,[1]; 10 µM,8165.5 ±18.1
same,Spheroid Diameter Day 0,[1]; 100 µM group,942.0 ± 58.9
same,Spheroid Diameter Day 9,[1]; 100 µM,7936.5 ± 48.6
"COc1cc(/C=N/NC(=O)c2cc(-c3ccccc3)c(-c3ccccc3)s2)cc(OC)c1OC [7i, N’-[(E)-(3,4,5-trimethoxyphenyl)methylidene]-4,5-diphenylthiophene-2-carbohydrazide]",IC50,MIA PaCa-2 cell line,> 100 µM
same,5-LOX Percent of İnhibition,5-LOX,27.23 ± 0.64%
same,COX-2 Percent of İnhibition,COX-2,13.27 ± 0.73%
same,melting point,,254 °C
same,Spheroid Diameter Day 0,[1]; 0.1 µM group,1135.5 ± 2.5
same,Spheroid Diameter Day 9,[1]; 0.1 µM,5523.0 ± 15.2
same,Spheroid Diameter Day 0,[1]; 1 µM group,943.0 ± 12.1
same,Spheroid Diameter Day 9,[1]; 1 µM,3539.0 ± 25.4
same,Spheroid Diameter Day 9,[1]; 10 µM,2764.0 ± 37.9
same,Spheroid Diameter Day 0,[1]; 100 µM group,1023.0 ± 59.5
same,Spheroid Diameter Day 9,[1]; 100 µM,2776.5 ± 85.2
"O=C(N/N=C/c1ccc2c(c1)OCO2)c1cc(-c2ccccc2)c(-c2ccccc2)s1 [7j, N’-[(E)-(2H-1,3-benzodioxol-5-yl)methylidene]-4,5-diphenylthiophene-2-carbohydrazide]",IC50,MIA PaCa-2 cell line,9.65 ± 0.22 µM
same,5-LOX Percent of İnhibition,5-LOX,36.10 ± 3.92%
same,COX-2 Percent of İnhibition,COX-2,16.64 ± 1.11%
same,melting point,,262 °C
same,Spheroid Diameter Day 0,[1]; 0.1 µM group,1112.0 ± 35.4
same,Spheroid Diameter Day 9,[1]; 0.1 µM,6291.5 ± 45.87
same,Spheroid Diameter Day 0,[1]; 1 µM group,998.0 ± 11.5
same,Spheroid Diameter Day 9,[1]; 1 µM,5934.0 ± 96.3
same,Spheroid Diameter Day 0,[1]; 10 µM group,1068.0 ± 68.1
same,Spheroid Diameter Day 9,[1]; 10 µM,5217.4 ± 25.7
same,Spheroid state at the end of the 9 days,[1]; 100 µM,disintegrated
"COc1cccc2c1C(=O)c1c(O)c3c(c(O)c1C2=O)C[C@@](O)(C(=O)CO)C[C@@H]3O[C@H]1C[C@H](N)[C@H](O)[C@H](C)O1 [DOX, Doxorubicin hydrochloride, reference compound]",IC50,MIA PaCa-2 cell line,0.35 ± 0.18 µM
same,IC50,HaCaT cell line,0.11 ± 0.08 µM
same,Reduction in spheroid size,"[1]; 10 µM, after 9 days of treatment",24%
"CC(c1cc2ccccc2s1)N(O)C(N)=O (stereo not drawn) [Zileuton, reference compound]",5-LOX Percent of İnhibition,5-LOX,64.85 ± 0.39%
